According to patent US20220409535A1, “BIOLOGICAL AGENT-EXOSOME COMPOSITIONS AND USES THEREOF” (The University of North Carolina at Chapel Hill, priority 2016, published 2022):
≈ marks a conversion by molar mass, not a printed value.

Columns and labels:
3LL-M27 = assay: In vitro cytotoxicity (MTT), 3LL-M27; assay type: cell-based, murine; conditions: Mus musculus; 3LL-M27, 48 hours
Experimental: (§1) Briefly, cancer cells (MDCKMDR1, MDCKwt, and 3LL-M27) were seeded at 5,000 cells/well in 100 μL of media in 96-well plates overnight. […] Following the incubation, the cells were washed and incubated with MTT reagent as described in Batrakova et al., Mol. Pharm. 3:113 (2006) Epub 2006/04/04. The cytotoxic activity of PTX was then evaluated using a standard MTT assay (Ferrari et al., J. Immunol. Meth. 131:165 (1990)). The absorbance at 570 nm was measured using a Shimadzu RF5000 fluorescent spectrophotometer. The survival values were determined in relation to control cells cultured in drug-free media. All experiments were repeated at least three times. SEM values were less than 10%.

MDCK wt = assay: In vitro cytotoxicity (MTT), MDCK wt; assay type: cell-based, canine; conditions: Canis lupus familiaris, 48 hours
Experimental: as §1

MDCK MDR1 = assay: In vitro cytotoxicity (MTT), MDCK MDR1; assay type: cell-based, canine; conditions: Canis lupus familiaris; MDCK MDR1, 48 hours
Experimental: as §1

sigma receptor = assay: Receptor competitive inhibition by free anisamide; assay type: cell-based, murine; conditions: 3LL-M27 cells, one hour
Experimental: Receptor Competitive Inhibition. To determine whether AA-vectorized exosomes to sigma receptor were accumulated in cancer cells via receptor-mediated endocytosis, a receptor competitive inhibition study was carried out. For this purpose, first a lipophilic fluorescent dye, DiL, was incorporated into exosome membranes. Briefly, the supernatant of RAW 264.7 macrophage conditioned media free of cells and cellular debris was filtered with a 0.22 μm PES filter and incubated with DiL dye (4 μM) at 37° C. for 20 min. Following a 20-minute incubation, ExoQuick-TC™ exosome precipitation solution was added to the filtered supernatant, the mixture was vortexed, and incubated overnight at 4° C. Then, the mixture was vortexed again and subsequently centrifuged at 1500×g for 30 minute to pellet exosomes. The supernatant was discarded and the exosome pellet was re-suspended in PBS. Freshly-prepared fluorescently labeled exosomes or exosomes stored at −20° C. were used for all experiments.
Next, 3LL-M27 cells were seeded overnight at 50,000 cells/well in a 96-well plate. […] The fluorescence levels in cell suspensions were measured by a Shimadzu RF5000 fluorescent spectrophotometer, and adjusted for protein content analyzed by BCA Assay using the Pierce BCA Protein Assay Kit (Thermo Fisher Scientific, Waltham, Mass., USA). […]

SMILES | IC50 (3LL-M27) [µg/mL] | IC50 (MDCK wt) [µg/mL] | IC50 (MDCK MDR1) [µg/mL] | competitive inhibition of uptake by free AA (sigma receptor)
CC(=O)O[C@H]1C(=O)[C@@]2(C)[C@H]([C@H](OC(=O)c3ccccc3)[C@]3(O)C[C@H](OC(=O)[C@H](O)[C@@H](NC(=O)c4ccccc4)c4ccccc4)C(C)=C1C3(C)C)[C@]1(OC(C)=O)CO[C@@H]1C[C@@H]2O [PTX, paclitaxel] | 0.126 ± 0.0313 (≈ 0.148 µM) | 0.429 ± 0.0634 (≈ 0.502 µM) | > 10 | 
COc1ccc(C(N)=O)cc1 [free AA, anisamide] |  |  |  | not able completely inhibit exosome uptake
